The compounds below were run against USP7 (Homo sapiens (Human), UniProt Q93009) (assay: USP7 Assay B (Ubitquin-Rhodamine110 Assay)). Details: Ub-Rh110 substrate 25 nM.
Type: biochemical
Procedure: Stock compound solutions were stored at −20° C. as 10 mM in DMSO. […] Prestamped assay plates were allowed to come to room temperature on the day of the assay. For the screen, 100 nL of 2 mM was pre-dispensed for a final screening concentration of 10 μM (DMSO(fc)=0.5%). […] Unless otherwise indicated, all follow-up assays were run on triplecate plates. […] Pre-stamped with compounds were either not preincubated or preincubated with USP7 between 30 to 120 minutes prior to the addition of 10 μL of 2×Ub-Rh110 to compound plates. Plates were incubated stacked for either 23 or 45 minutes at room temperature before fluorescence was read on the Envision (Excitation at 485 nm and Emission at 535 nm; Perkin Elmer) or on the PheraSTAR (Excitation at 485 nm and Emission at 535 nm; BMG Labtech).
Data from USP7 Assays A and B were reported as percent inhibition (inh) compared with control wells based on the following equation: % inh=1−((FLU−AveLow)/(AveHigh−AveLow)) where FLU=measured Fluorescence (See Tables 2 and 3). AveLow=average Fluorescence of no enzyme control (n=16). AveHigh=average Fluorescence of DMSO control (n=16). IC50 values were determined by curve fitting of the standard 4 parameter logistic fitting algorithm included in the Activity Base software package: IDBS XE Designer Model205. Data is fitted using the Levenburg Marquardt algorithm.

Chain of USP7 (Q93009 208-1102): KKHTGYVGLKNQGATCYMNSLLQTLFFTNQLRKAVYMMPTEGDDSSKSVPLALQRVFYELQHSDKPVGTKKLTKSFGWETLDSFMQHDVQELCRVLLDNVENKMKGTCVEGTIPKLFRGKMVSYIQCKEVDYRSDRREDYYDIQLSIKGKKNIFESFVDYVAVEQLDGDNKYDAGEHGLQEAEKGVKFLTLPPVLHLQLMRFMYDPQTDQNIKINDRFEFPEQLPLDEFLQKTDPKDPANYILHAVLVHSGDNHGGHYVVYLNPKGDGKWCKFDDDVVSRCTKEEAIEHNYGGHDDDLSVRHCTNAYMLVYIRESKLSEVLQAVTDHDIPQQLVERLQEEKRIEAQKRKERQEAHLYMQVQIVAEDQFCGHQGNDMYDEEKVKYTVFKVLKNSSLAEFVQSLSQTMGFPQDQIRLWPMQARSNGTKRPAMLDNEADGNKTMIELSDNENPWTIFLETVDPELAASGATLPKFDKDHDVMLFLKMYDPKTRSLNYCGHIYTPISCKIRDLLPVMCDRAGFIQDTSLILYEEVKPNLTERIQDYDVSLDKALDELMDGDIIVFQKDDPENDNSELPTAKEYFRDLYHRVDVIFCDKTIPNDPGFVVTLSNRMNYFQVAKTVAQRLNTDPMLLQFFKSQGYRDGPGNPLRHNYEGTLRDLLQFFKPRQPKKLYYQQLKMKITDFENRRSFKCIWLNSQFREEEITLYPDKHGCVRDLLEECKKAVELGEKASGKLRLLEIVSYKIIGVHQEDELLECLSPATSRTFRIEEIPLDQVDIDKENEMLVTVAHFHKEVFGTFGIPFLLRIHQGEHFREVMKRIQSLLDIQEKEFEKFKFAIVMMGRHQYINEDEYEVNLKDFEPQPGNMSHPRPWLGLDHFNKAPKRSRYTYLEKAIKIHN

Q: With O=C(c1ccc(S(=O)(=O)c2ccccc2)cc1)N1CCC(O)(Cn2cnn3cccc3c2=O)CC1 [Compound I-61, 3-((4-hydroxy-1-(4-(phenylsulfonyl)benzoyl)piperidin-4-yl)methyl)pyrrolo[2,1-f][1,2,4]triazin-4(3H)-one] as the compound, how does the IC50 read?
A: 1 to 10 µM

Q: Which IC50 does the source give for O=C(c1ccc(Sc2ccccc2)cc1)N1CCC(O)(Cn2cnn3cccc3c2=O)CC1 [Compound I-62, 3-((4-hydroxy-1-(4-(phenylthio)benzoyl)piperidin-4-yl)methyl)pyrrolo[2,1-f][1,2,4]triazin-4(3H)-one] here?
A: 1 to 10 µM

Q: With O=C(c1ccc(Cn2cnc3ccccc32)cc1)N1CCC(O)(Cn2cnn3cccc3c2=O)CC1 [Compound I-64, 3-((1-(4-((1H-benzo[d]imidazol-1-yl)methyl)benzoyl)-4-hydroxypiperidin-4-yl)methyl)pyrrolo[2,1-f][1,2,4]triazin-4(3H)-one] as the compound, how does the IC50 read?
A: 1 to 10 µM

Q: Which IC50 does the source give for O=C(c1ccc(Cn2cccn2)cc1)N1CCC(O)(Cn2cnn3cccc3c2=O)CC1 [Compound I-65, 3-((1-(4-((1H-pyrazol-1-yl)methyl)benzoyl)-4-hydroxypiperidin-4-yl)methyl)pyrrolo[2,1-f][1,2,4]triazin-4(3H)-one] here?
A: 1 to 10 µM

Q: Cc1nnnn1Cc1ccc(C(=O)N2CCC(O)(Cn3cnn4cccc4c3=O)CC2)cc1 [Compound I-66, 3-((4-hydroxy-1-(4-((5-methyl-1H-tetrazol-1-yl)methyl)benzoyl)piperidin-4-yl)methyl)pyrrolo[2,1-f][1,2,4]triazin-4(3H)-one] was tested. Which IC50 did it give?
A: > 10 µM

Q: For Cc1cc(C(F)(F)F)nn1Cc1ccc(C(=O)N2CCC(O)(Cn3cnn4cccc4c3=O)CC2)cc1 [Compound I-67, 3-((4-hydroxy-1-(4-((5-methyl-3-(trifluoromethyl)-1H-pyrazol-1-yl)methyl)benzoyl)piperidin-4-yl)methyl)pyrrolo[2,1-f][1,2,4]triazin-4(3H)-one], which IC50 is on record?
A: 1 to 10 µM

Q: O=C(c1ccc(Cn2nnc3ccccc32)cc1)N1CCC(O)(Cn2cnn3cccc3c2=O)CC1 [Compound I-68, 3-((1-(4-((1H-benzo[d][1,2,3]triazol-1-yl)methyl)benzoyl)-4-hydroxypiperidin-4-yl)methyl)pyrrolo[2,1-f][1,2,4]triazin-4(3H)-one] was tested. Which IC50 did it give?
A: 1 to 10 µM

Q: How did the IC50 turn out when Cc1cc(C)n(Cc2ccc(C(=O)N3CCC(O)(Cn4cnn5cccc5c4=O)CC3)cc2)n1 [Compound I-69, 3-((1-(4-((3,5-dimethyl-1H-pyrazol-1-yl)methyl)benzoyl)-4-hydroxypiperidin-4-yl)methyl)pyrrolo[2,1-f][1,2,4]triazin-4(3H)-one] was run?
A: 1 to 10 µM

Q: Which IC50 does the source give for O=C(c1ccc(Cc2cccs2)cc1)N1CCC(O)(Cn2cnn3cccc3c2=O)CC1 [Compound I-70, 3-((4-hydroxy-1-(4-(thiophen-2-ylmethyl)benzoyl)piperidin-4-yl)methyl)pyrrolo[2,1-f][1,2,4]triazin-4(3H)-one] here?
A: 1 to 10 µM

Q: Which IC50 does the source give for O=C(c1ccccc1)c1ccc(C(=O)N2CCC(O)(Cn3cnn4cccc4c3=O)CC2)cc1 [Compound I-71, 3-((1-(4-benzoylbenzoyl)-4-hydroxypiperidin-4-yl)methyl)pyrrolo[2,1-f][1,2,4]triazin-4(3H)-one] here?
A: 1 to 10 µM

Q: For CCN(c1ccccc1)c1ccc(C(=O)N2CCC(O)(Cn3cnn4cccc4c3=O)CC2)cc1 [Compound I-72, 3-((1-(4-(ethyl(phenyl)amino)benzoyl)-4-hydroxypiperidin-4-yl)methyl)pyrrolo[2,1-f][1,2,4]triazin-4(3H)-one], which IC50 is on record?
A: 1 to 10 µM

Q: How did the IC50 turn out when N#Cc1ccc(N2CCN(C(=O)N3CCC(O)(Cn4cnn5cccc5c4=O)CC3)CC2)cc1 [Compound I-73, 4-(4-(4-hydroxy-4-((4-oxopyrrolo[2,1-f][1,2,4]triazin-3(4H)-yl)methyl)piperidine-1-carbonyl)piperazin-1-yl)benzonitrile] was run?
A: > 10 µM

Q: For CS(=O)(=O)c1ccc(N2CCN(C(=O)N3CCC(O)(Cn4cnn5cccc5c4=O)CC3)CC2)cc1 [Compound I-74, 3-((4-hydroxy-1-(4-(4-(methylsulfonyl)phenyl)piperazine-1-carbonyl)piperidin-4-yl)methyl)pyrrolo[2,1-f][1,2,4]triazin-4(3H)-one], which IC50 is on record?
A: > 10 µM
